Experimental findings from publication PMC10823475, “Design, Synthesis, and Evaluation of Inhibitors of Hedgehog Acyltransferase” (Journal of Medicinal Chemistry, 2024) are described below.

Several values for one entry are separate records, joined by “and”; a condition that tells them apart may be missing. Identical values can stand only once.

Data set [1] can be described thus: MTS assay, cytotoxicity (72 h). The data set is classed as cell-based. The settings on record: human, HEK293a SHH+ cells, 72 h; for CC50 at 72 h: read-out: MTS Assay (HEK293a SHH+) CC50 (CI95). The method in brief:
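Cells plated at 5000/well, cultured 24 h, then exposed to analogues (0.14–100 μM final) in DMEM/10% FBS for 72 h. MTS/PMS added for 3 h at 37 °C and absorbance read at 490 nm; data normalised to DMSO vehicle and puromycin (2 μg/mL) wells, curves fitted with a variable-slope sigmoidal model.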
(Formazan colour is commonly taken as a measure of viable cells.)

For data set [2], the target named is T1, purified HHAT (Homo sapiens, UniProt Q5VTY9).
T1 construct: made in house
As to the kind of experiment: Acyl-cLIP assay, inhibition of purified HHAT. Type of data set: biochemical. As to conditions: for LLEAcyl-cLIP: from Acyl-cLIP IC50 and clogDpH7.4; for IC50: purified HHAT, read-out: Acyl-cLIP Assay IC50 (CI95); for fold more potent than analogues 19, 32, and 34: meta-methyl on 4-position aromatic ring. The method in brief: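 Fluorescence polarization of FAM-labelled SHH N-terminal peptide palmitoylated by DDM-solubilized purified recombinant HHAT with palmitoyl-CoA, pH 6.5 MES buffer, read over 30 min. Initial rates normalized to DMSO and no-enzyme controls; IC50 from variable-slope sigmoidal fit of 1:1 serial dilutions; single-point % inhibition at 50 and 25 μM.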

T1 sequence (Q5VTY9 whole entry): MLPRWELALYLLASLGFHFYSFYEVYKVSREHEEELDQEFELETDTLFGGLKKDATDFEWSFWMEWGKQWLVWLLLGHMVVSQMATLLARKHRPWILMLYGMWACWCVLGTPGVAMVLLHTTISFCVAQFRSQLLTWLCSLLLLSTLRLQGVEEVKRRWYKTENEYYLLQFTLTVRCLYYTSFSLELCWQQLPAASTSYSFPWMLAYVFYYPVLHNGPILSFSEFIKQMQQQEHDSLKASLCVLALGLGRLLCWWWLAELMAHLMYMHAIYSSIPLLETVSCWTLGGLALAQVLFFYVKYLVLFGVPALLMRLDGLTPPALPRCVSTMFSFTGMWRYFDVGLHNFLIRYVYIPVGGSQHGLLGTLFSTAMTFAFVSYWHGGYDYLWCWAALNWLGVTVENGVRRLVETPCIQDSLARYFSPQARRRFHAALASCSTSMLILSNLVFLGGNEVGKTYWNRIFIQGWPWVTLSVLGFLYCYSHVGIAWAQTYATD

With `Cc1cccc([C@H]2c3ccsc3CCN2C(=O)CNCC(C)C)n1` [Compound 30], in data set [1], the CC50 at 72 h was more than 50 µM; the viability at 72 h, 12.5 µM came to 101 ± 6%; the viability at 72 h, 25 µM came to 98 ± 5%. Moreover, in data set [2], the inhibition at 25 µM was found to be 92 ± 4%, the inhibition at 50 µM worked out at 95 ± 4%, the LLEAcyl-cLIP worked out at 5.14 and the IC50 was less than 10 µM. Besides, the “fold increase in potency compared to racemate” value in data set [2] (enantiomer vs racemate (29 vs 21, 30 vs 24, 43 vs 39)) is on record as 2 fold.
With `CC(=O)N1CCc2sccc2C1c1ccccc1` (stereo not shown) [Compound 5], in data set [1], the CC50 at 72 h was determined as 13.9 µM; the viability at 72 h, 12.5 µM came out at 73 ± 2%; the viability at 72 h, 25 µM came out at 76 ± 4%. Besides, in data set [2], the inhibition at 25 µM came out at 66 ± 7%; the inhibition at 50 µM came out at 85 ± 5%; the LLEAcyl-cLIP was 2.39; the IC50 is 5.3 µM and 5.34 µM.
Regarding `Cc1cccc(C2c3ccsc3CCN2C(=O)CNCC(C)C)n1` (stereo not shown) [Compound 24], in data set [1], the CC50 at 72 h is more than 50 µM; the viability at 72 h, 12.5 µM is 88 ± 3%; the viability at 72 h, 25 µM amounted to 80 ± 3%. For the same molecule, in data set [2], the inhibition at 25 µM was 91 ± 4%, the inhibition at 50 µM was 95 ± 4%, the LLEAcyl-cLIP is 4.90 and the IC50 was found to be 1.33 µM.
As to `Cc1cccc([C@@H]2c3ccsc3CCN2C(=O)CNCC(C)C)n1` [Compound 28], in data set [1], the CC50 at 72 h was more than 100 µM; the viability at 72 h, 12.5 µM is 108 ± 7%; the viability at 72 h, 25 µM was 105 ± 4%. Also, in data set [2], the “HHAT inhibition in the acyl-cLIP assay” value was “no inhibitory activity”, the inhibition at 25 µM came out at 13 ± 4%, the inhibition at 50 µM is 18 ± 2% and the half-inhibitory concentration (IC50) is more than 100 µM.
On to `C=CCNCC(=O)N1CCc2sccc2C1COc1ccc(Cl)cc1` (stereo not shown) [Compound 2], for which, in data set [1], the CC50 at 72 h stood at 35.9 µM; the viability at 72 h, 12.5 µM came to 56 ± 3%; the viability at 72 h, 25 µM was 50 ± 2%. In data set [2], the inhibition at 25 µM came out at 73 ± 9%, the inhibition at 50 µM was determined as 87 ± 2%, the LLEAcyl-cLIP is 2.48 and the IC50 was 5.76 µM.
As to `CCC(C)CNCC(=O)N1CCc2sccc2C1c1cccc(C)c1` (stereo not shown) [Compound 17], in data set [1], the CC50 at 72 h is 40.7 µM; the viability at 72 h, 12.5 µM turned out to be 42 ± 3%; the viability at 72 h, 25 µM worked out at 55 ± 1%. In data set [2], the inhibition at 25 µM amounted to 93 ± 7%; the inhibition at 50 µM worked out at 88 ± 2%; the LLEAcyl-cLIP was determined as 2.91; the “fold more potent than analogues 19, 32, and 34” value was 2–5 fold. In data set [2], the IC50 amounted to 2.13 µM.
As to `CCC(C)CNCC(=O)N1CCc2sccc2C1c1cccc(C)n1` (stereo not shown) [Compound 22], in data set [1], the 50% cytotoxic concentration (CC50) at 72 h was more than 50 µM; the viability at 72 h, 12.5 µM was determined as 92 ± 1%; the viability at 72 h, 25 µM worked out at 89 ± 3%. Also, in data set [2], the inhibition at 25 µM was determined as 96 ± 1%; the inhibition at 50 µM is 103 ± 1%; the LLEAcyl-cLIP came to 4.20; the “fold more potent than analogues 19, 32, and 34” value is 2–5 fold. In addition, in data set [2], the 50% inhibitory concentration (IC50) came to 2.58 µM.

As a reminder, the CC50 is the concentration that lowers cell viability or growth by half. One may read the viability as a read-out of living cells in per cent, often relative to untreated cells. As a reminder, the inhibition is the relative decrease from the control value, in per cent. In general, IC50 refers to the concentration that gives 50% inhibition.
